# Laboratory results reported in US8841257B2, “Inhibitors of STAT3 and uses thereof” (Board of Regents, The University of Texas System, priority 2009, dated 2014).
# “Also recorded” adds a separate entry of the source.
# Biological target: T1, STAT3 (Homo sapiens, UniProt P40763)
# Experiment: Inhibition of Stat3 tyrosine705 phosphorylation in MDA-MB-468 cells
# Type: cell-based
# Parameters: host or cells: MDA-MB-468 breast tumor cells
# Details: prodrug in DMSO, 2 h
# Procedure: Inhibition of Stat3 tyrosine705 phosphorylation in MDA-MB-468 cells. MDA-MB-468 breast tumor cells (0.4×10^6) were plated onto 35 mm culture dishes and were allowed to grow overnight. Prodrugs were prepared as 10 mM stock solutions in DMSO and aliquots were added to the culture media to give the correct final concentrations. After 2 h the cells were washed with ice cold phosphate buffered saline. Washed cells were treated with lysis buffer (50 mM Hepes, pH 7.4, 150 mM NaCl, 1.5 mM MgCl2, 1 mM EGTA, 100 mM NaF, 10 mM sodium pyrophosphate, 10% glycerol, 1% Triton X-100, 1 mM PMSF, 1 mM Na3VO4, 10 μg/mL leupeptin and 10 μg/mL aprotinin). Cell-free detergent extracts were centrifuged at 15,000 rpm in a microcentriguge for 30 min at 4° C. and the protein concentrations of the supernatants determined. Aliquots containing 12 μg of protein were separated on 8% SDS-PAGE and were transferred to PVDF filters. The filters were blocked with 5% bovine serum albumin and were probed with pStat3^Y705 antibody followed by secondary antibody, whose signal was detected with an enhanced chemiluminescence kit (ECL, Amersham, Chicago, Ill.). Filters were stripped with stripping buffer (62.5 mM Tris, pH 6.8, 2% SDS, and 0.1 M 2-mercaptoethanol) at 50° C. for 30 min. Filters were then probed with total Stat3 antibody and visualized with chemiluminescence as above.
# T1 sequence (P40763 whole entry): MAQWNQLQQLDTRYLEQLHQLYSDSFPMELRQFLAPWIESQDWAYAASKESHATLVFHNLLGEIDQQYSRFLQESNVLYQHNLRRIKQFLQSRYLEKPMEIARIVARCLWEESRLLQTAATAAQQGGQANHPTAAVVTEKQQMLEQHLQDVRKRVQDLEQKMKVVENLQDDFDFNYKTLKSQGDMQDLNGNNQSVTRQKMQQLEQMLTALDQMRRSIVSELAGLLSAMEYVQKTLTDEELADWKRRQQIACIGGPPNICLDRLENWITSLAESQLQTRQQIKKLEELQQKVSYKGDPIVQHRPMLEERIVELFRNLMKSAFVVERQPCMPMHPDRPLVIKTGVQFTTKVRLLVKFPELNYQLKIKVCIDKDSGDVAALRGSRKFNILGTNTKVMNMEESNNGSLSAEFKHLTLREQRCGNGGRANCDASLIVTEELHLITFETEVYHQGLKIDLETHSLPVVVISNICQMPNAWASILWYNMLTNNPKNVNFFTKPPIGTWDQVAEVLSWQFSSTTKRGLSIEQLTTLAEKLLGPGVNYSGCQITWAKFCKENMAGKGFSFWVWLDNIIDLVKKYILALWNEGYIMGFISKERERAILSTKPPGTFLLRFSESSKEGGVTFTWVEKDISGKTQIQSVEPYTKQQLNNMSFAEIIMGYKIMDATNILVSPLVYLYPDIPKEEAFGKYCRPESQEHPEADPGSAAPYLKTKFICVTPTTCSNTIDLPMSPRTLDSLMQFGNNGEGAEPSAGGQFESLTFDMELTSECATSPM
row,Compound,inhibition of Tyr705 phosphorylation of Stat3 (potency in words)
1,"CCCC[C@H](NC(=O)/C=C(\C)c1ccc(C(F)(F)P(=O)(OCOC(=O)C(C)(C)C)OCOC(=O)C(C)(C)C)cc1)C(=O)N1C[C@@H]2CC2[C@@H]1C(=O)N[C@H](C)CCC(N)=O (stereo partly drawn) [Example 19, (2E)-3-[4-[[bis[(2,2-dimethyl-1-oxopropoxy)methoxy]phosphinyl]difluoromethyl]phenyl]-but-2-enoyl-norleucinyl-(2R,3S,4R)-methanoprolinyl-(R)-4-aminopentamide]",very weak inhibitors; also recorded: much less potent
2,"CCCC[C@H](NC(=O)/C=C(\C)c1ccc(C(F)(F)P(=O)(OCOC(=O)C(C)(C)C)OCOC(=O)C(C)(C)C)cc1)C(=O)N1C[C@@H]2CC2[C@@H]1C(=O)N[C@@H](CCC(N)=O)[C@@H](C)OCc1ccccc1 (stereo partly drawn) [Example 17, (2E)-3-[4-[[bis[(2,2-dimethyl-1-oxopropoxy)methoxy]phosphinyl]difluoromethyl]phenyl]-but-2-enoyl-norleucinyl-(2R,3S,4R)-methanoprolinyl-(4S,5R)-4-amino-5-benzyloxyhexamide]",very weak inhibitors; also recorded: much less potent

# Other lines, results leading:
row,inhibition of Tyr705 phosphorylation of Stat3 (potency in words),Compound
1,inhibit phosphorylation of STAT3,"CCCC[C@H](NC(=O)/C=C(\C)c1ccc(C(F)(F)P(=O)(OCOC(=O)C(C)(C)C)OCOC(=O)C(C)(C)C)cc1)C(=O)N1CCC[C@H]1C(=O)N[C@H](C)CCC(N)=O [Example 23, (2E)-3-[4-[[bis[(2,2-dimethyl-1-oxopropoxy)methoxy]phosphinyl]difluoromethyl]phenyl]-but-2-enoyl-norleucinyl-prolinyl-(R)-4-aminonentamide]"
2,inhibit phosphorylation of STAT3,"CCCC[C@H](NC(=O)/C=C(\C)c1ccc(C(F)(F)P(=O)(OCOC(=O)C(C)(C)C)OCOC(=O)C(C)(C)C)cc1)C(=O)N1CC(F)(F)C[C@H]1C(=O)N[C@H](C)CCC(N)=O [Example 24, (2E)-3-[4-[[bis[(2,2-dimethyl-1-oxopropoxy)methoxy]phosphinyl]difluoromethyl]phenyl]-but-2-enoyl-norleucinyl-4,4-difluoroprolinyl-(R)-4-aminopentamide]"
3,inhibit phosphorylation of STAT3,"CCCC[C@H](NC(=O)/C=C(\C)c1ccc(C(F)(F)P(=O)(OCOC(=O)C(C)(C)C)OCOC(=O)C(C)(C)C)cc1)C(=O)N1CC(C)(C)C[C@H]1C(=O)N[C@H](C)CCC(N)=O [Example 25, (2E)-3-[4-[[bis[(2,2-dimethyl-1-oxopropoxy)methoxy]phosphinyl]difluoromethyl]phenyl]-but-2-enoyl-norleucinyl-4,4-dimethylprolinyl-(R)-4-aminopentamide]"

# Biological target: T1, STAT3
# Experiment: Inhibition of STAT3 phosphorylation in BT20 breast tumor cells (western blot)
# Type: cell-based
# Parameters: endogenous in cells; host or cells: BT20 breast tumor cells
# Details: 5 μM; BT-20 cells
# Procedure: Inhibition of STAT3 in BT20 Breast Tumor Cells. General procedure: 35 mm petri dishes were plated with 300,000 BT20 cells in 2 mL RPMI1640 media containing 10% FBS, […], streptomycin, and glutamine. Prodrugs were dissolved in DMSO and were added to the cells with fresh media at varying concentrations. After 2 h the cells were washed with ice cold phosphate buffered saline. Washed cells were treated with lysis buffer (50 mM Hepes, pH 7.4, 150 mM NaCl, 1.5 mM MgCl2, 1 mM EGTA, 100 mM NaF, 10 mM sodium pyrophosphate, 10% glycerol, 1% Triton X-100, 1 mM PMSF, 1 mM Na3VO4, 10 μg/mL leupeptin and 10 μg/mL aprotinin). Cell-free detergent extracts were centrifuged at 15,000 rpm in a microcentriguge for 30 min at 4° C. and the protein concentrations of the supernatants determined. Aliquots containing 12 μg of protein were separated on 8% SDS-PAGE and were transferred to PVDF filters. The filters were blocked with 5% bovine serum albumin and were probed with pStat3^Y705 antibody followed by secondary antibody, whose signal was detected with an enhanced chemiluminescence kit (ECL, Amersham, Chicago, Ill.). Filters were stripped with stripping buffer (62.5 mM Tris, pH 6.8, 2% SDS, and 0.1 M 2-mercaptoethanol) at 50° C. for 30 min. Filters were then probed with total Stat3 antibody and visualized with chemiluminescence as above.
# Because DMSO is toxic, other formulations were evaluated for potential use in animal models. The compound of Example 1 was dissolved in EtOH, 20% (w/v) Trappsol (hydroxypropyl β-cyclodextran, pharmaceutical grade), or a liposomal formulation to a concentration of 5 mM. These formulations were given to cells at 0.1, 0.5, and 5 μM concentrations. At two hours, cells were lysed and pSTAT3 levels were determined by Western Blot (FIG. 3). Different formulations have little effect on inhibition of STAT3. The compound of Example 1 was dissolved in DMSO, EtOH, Trappsol, or as a 10 mol % mixture in dimyristoylphosphatidyl choline and applied to BT20 cell in culture. After two hours, cells were lysed and pSTAT3 levels determined by Western blot. To prepare liposomes a solution of 1.0 mg of the compound of Example 1, 7.2 mg of DMPC, 0.41 mg of Tween 20 in 1.0 mL of tert-butanol was lyophilized. A control lipid formulation of 7.2 mg of DMPC and 0.41 mg of Tween 20 in 1.0 mL of tert-butanol was lyophilized. These samples were mixed with 236 μL of H2O and were vortexed and sonicated for 5 min.
# The compounds are selective for STAT3 over STAT1 in BT20 breast tumor cells. BT20 cells prepared as above and were treated with 5 μM of the compound of Example 1 for two hours then were treated with 25 ng/mL of interferon γ (IFNγ). […] (FIG. 4, bottom panel).
# Time course of inhibition of STAT3 phosphorylation in BT20 cells. BT20 cells were plated as above and treated with the compounds from Examples 1 and 6 and western blots were performed at varying time intervals.
row,Compound,phosphorylation of STAT3 at the indicated time points
1,"C/C(=C\C(=O)N[C@H]1CCc2cccc3c2N(C1=O)[C@H](C(=O)N[C@H](C)CCC(N)=O)C3)c1ccc(OP(=O)(OCOC(=O)C(C)(C)C)OCOC(=O)C(C)(C)C)cc1 [Example 6, (2E)-3-[4-[[bis[(2,2-dimethyl-1-oxopropoxy)methoxy]phosphinyl]oxy]phenyl]-but-2-enoyl-Haic-(R)-4-aminopentamide]",inhibit the phosphorylation of STAT3
